According to patent US20130115256A1, “METHODS FOR TREATING OR PREVENTING VASCULAR GRAFT FAILURE” (priority 2010, published 2013):

Tests used:
[1] = test system: mouse vein graft (intrathoracic inferior vena cava); assay: Mouse vein graft model; type: in vivo
Procedure: 12-week-old C57BL/6 wild type mice (Harlan) were used for all experiments, as previously described (Muto, A. et al., J. Exp. Med., 2011, 208(3): 561-575, incorporated herein by reference in its entirety). […] Prior to implantation, the vein was treated ex vivo with 100 μM of MMI-0100 ([…] (SEQ ID NO: 1)) peptide solution, or control PBS solution, for 20 minutes at room temperature.
To implant the vein graft, a midline incision was made in the abdomen of a recipient mouse and the infrarenal abdominal aorta was exposed. The abdominal aorta was temporarily occluded with atraumatic micro-clamps and a segment corresponding to the length of the vein graft was excised. The vein was sutured into the arterial circulation using 10-0 nylon in continuous fashion.
Vein grafts were followed postoperatively using the Vevo770® High-Resolution Imaging System (VisualSonics, Toronto, Canada), with weekly measurements of graft wall thickness. At 28 days after surgery, mice were sacrificed to allow explantation of the vein graft. Tissue was either frozen with RNA stabilization reagent (Qiagen) or explanted for paraffin embedding after circulatory flushing with ice-cold PBS followed by 4% paraformaldehyde perfusion-fixation. Vein graft wall thickness, lumen diameter, and outer wall diameter (elastic lamina) were measured in elastin-stained sections using computer morphometry (ImageJ).
Vein graft samples were fixed as described above and harvested for histology. Specimens were embedded in paraffin and cut in cross section (5 μm). Hematoxylin & Eosin, Masson trichrome, and van Gieson elastin staining were performed for all samples. Cells were cultured on gelatin-coated cover slips and fixed with methanol.
All sections were treated for antigen retrieval using 10 mmol/L citrate buffer (pH 6.0) prior to boiling or proteinase K (20 μg/ml) treatment, at room temperature, for 10-15 minutes. Immunohistochemical detection was performed using DAB as well as NovaRED® substrate (Vector). Sections were counterstained with Mayer's Hematoxylin.
The efficacy of MMI-0100 ([…]; SEQ ID NO: 1) in treating intimal hyperplasia in vivo was examined using a mouse model of vein bypass graft. […] The IVC was soaked in a 100 μM solution of MMI-0100 ([…]; SEQ ID NO: 1) at room temperature for 20 minutes prior to implantation into a host (C57BL/6J) mouse to bypass the infrarenal aorta. Five treated and six untreated veins were transplanted for a total of 11 transplanted animals. Vein graft wall thickness was determined using a Vevo7700 ultrasound imaging system at each week. […]

[2] = test system: human endothelial cell (EC; HAEC); assay: MTS cell proliferation assay, human endothelial cells; type: cell-based
Procedure: (§1) The CellTiter 96® AQueous Non-Radioactive Cell Proliferation Assay (Promega) was used to assess drug effects on cell proliferation according to the manufacturer's instructions. Briefly, HAECs and HASMCs from early passages were grown to 80-90% confluence in 25 cm^2 tissue culture flasks in a 37° C./5% CO2 incubator prior to harvest. 200 μl of each type of cell suspension (at 20,000 cells/cm^2) was seeded onto separate 96-well plates to yield an approximate 60% confluence per well. Cells were allowed to adhere to the plate surface overnight, followed by addition of 20 ng/ml of TNF-α to stimulate production of inflammatory agents. After a 4-6 hour incubation period, MMI-0100 peptide drug ([…]; SEQ ID NO: 1) was added and cells incubated for another 20-24 hours. Each well was then supplemented with 100 μl of fresh medium and 200 μl of CellTiter 96® AQueous One Solution Reagent and incubated for an additional 1.5-2 hours prior to measuring absorbance of each well at 490 nm with a SoftMax®-equipped plate reader.
(§2) In order to determine the effect of pharmacological doses of MMI-0100 ([…]; SEQ ID NO: 1) on human endothelial cell (EC) and smooth muscle cell (SMC) proliferation, human EC and SMC cultures were treated with three concentrations (0.25 mM, 0.5 mM, and 1 mM) of MMI-0100 ([…] (SEQ ID NO: 1)) following pre-treatment with TNF-α.

[3] = test system: human smooth muscle cell (SMC; HASMC); assay: MTS cell proliferation assay, human smooth muscle cells; type: cell-based
Procedure: as §1, §2

With YARAAARQARAKALARQLGVAA [MMI-0100] the “reduced wall thickness compared to control grafts, histological staining” value ([1]; 100 μM ex vivo 20 minutes, 4 weeks) was 72%, the “F4/80-positive cells infiltrating into vein grafts” value ([1]; 100 μM ex vivo 20 minutes, 4 weeks, immunohistochemistry) was “fewer” and the “vein graft wall thickness ratio by ultrasound” value ([1]; follow-up study, 100 μM ex vivo 20 minutes, 4 weeks (control grafts 4.7-fold)) was 2.6 fold. For the same sequence, the “grafted vessel wall thickness relative to the originally harvested IVC” value ([1]; vein soaked ex vivo in 100 μM for 20 minutes, 4 weeks after graft, ultrasound (control almost five times)) was “about 2.5 times”, the “EC proliferation compared to control (20 ng/ml TNF-α alone)” value ([2]; 0.25 mM MMI-0100) was “slightly increased” and the “increase in EC proliferation compared to control (20 ng/ml TNF-α alone)” value ([2]; 0.5 mM MMI-0100) was 30%. The “increase in EC proliferation compared to control (20 ng/ml TNF-α alone)” value ([2]; 1 mM MMI-0100) was 11%, the “EC morphology, phase contrast images” value ([2]; 24 hours treatment) was “no obvious morphological changes” and the “SMC proliferation compared to control (20 ng/ml TNF-α alone)” value ([3]; 0.25 mM MMI-0100) was “slightly increased”. For the same sequence, the “increase in SMC proliferation compared to control (20 ng/ml TNF-α alone)” value ([3]; 0.5 mM MMI-0100) was 12%, the “increase in SMC proliferation compared to control (20 ng/ml TNF-α alone)” value ([3]; 1 mM MMI-0100) was 7% and the “SMC morphology, phase contrast images” value ([3]; 24 hours treatment) was “no obvious morphological changes”.
